Broadly, the EC50 is the concentration giving half of the maximal effect. By IC50 is commonly meant the concentration needed to halve the response being measured.

Data set [1] deals with ovalbumin-mediated lung function changes (sGaw). Description: Ovalbumin challenge/parainfluenza infection model. The data set is classed as in vivo, Dunkin-Hartley guinea-pigs. To be noted: nebulised, 1.5 mg per day; sensitized animals treated with PIV3 medium.
Data set [2] concerns neutrophil and macrophage accumulation into airways. Put plainly: Cigarette smoke model. The data set is classed as in vivo, A/J mice. Conditions: 50 μg/ml (35 μl, bid, in); cigarette smoke exposed mice. The protocol: A/J mice (males, 5 weeks old) were exposed to cigarette smoke (4% cigarette smoke, diluted with compressed air) for 30 min/day for 11 days using a Tobacco Smoke Inhalation Experiment System for small animals (Model SIS-CS; Sibata Scientific Technology, Tokyo, Japan). Test substances were given intra-nasally (35 μl of solution in 50% DMSO/PBS) and therapeutically twice daily for 3 days after the final cigarette smoke exposure. Twelve hours after the last dosing, animals were anesthetized, the trachea cannulated and bronchoalveolar lavage fluid (BALF) was collected. […] The results are shown in FIG. 3 for activated alveolar macrophages and in FIG. 4 for neutrophils. Data for cell numbers are shown as the mean±SEM. The cigarette smoke model used for this study is reported as a corticosteroid refractory system, ([…]. et al., (2008); J. Pharmacol. Exp.

The test system of data set [3] is LPS-induced TNFα release in differentiated U937 cells. Description: LPS-induced TNF alpha release in differentiated U937 cells. The data set is classed as cell-based.
Procedure: U937 cells, human monocytic cell line, were differentiated to macrophage-type cells by incubation with phorbol myristate acetate (PMA; 100 ng/ml) for 48 to 72 hours. Where appropriate, cells were pre-incubated with final concentrations of compound for 2 hrs. Cells were then stimulated with 0.1 μg/mL of LPS (from E. coli: O111:B4, Sigma) for 4 hrs, and the supernatant collected for determination of TNFα concentration by sandwich ELISA (Duo-set, R&D systems).
The target in data set [4] is T1, recombinant, phosphorylated p38 MAPK gamma (MAPK12:Millipore) (Homo sapiens, UniProt P53778).
T1 construct: purchased Millipore
T1 sequence (P53778 1-367): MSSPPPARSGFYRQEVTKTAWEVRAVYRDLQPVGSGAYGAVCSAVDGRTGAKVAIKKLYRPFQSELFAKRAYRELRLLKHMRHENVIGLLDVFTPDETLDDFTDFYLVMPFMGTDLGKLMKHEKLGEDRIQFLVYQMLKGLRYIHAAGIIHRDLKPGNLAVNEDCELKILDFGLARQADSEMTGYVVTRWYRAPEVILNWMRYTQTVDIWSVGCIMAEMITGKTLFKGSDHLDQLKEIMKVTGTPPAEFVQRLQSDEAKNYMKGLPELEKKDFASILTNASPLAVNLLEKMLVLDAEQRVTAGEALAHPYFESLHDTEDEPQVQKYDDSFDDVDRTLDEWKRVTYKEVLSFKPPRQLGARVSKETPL
Put plainly: Enzyme inhibition assay (FRET, Z-LYTE), p38 MAPK gamma. Conditions: read-out: IC50 values P38γ enzyme. The data set is classed as biochemical.
Procedure: The enzyme inhibitory activity of compound was determined by fluorescence resonance energy transfer (FRET) using synthetic peptides labelled with both donor and acceptor fluorophores (Z-LYTE, Invitrogen). Briefly, recombinant, phosphorylated p38 MAPK gamma (MAPK12:Millipore) was diluted in HEPES buffer, mixed with compound at desired final concentrations and incubated for two hours at room temperature. The FRET peptide (2 μM) and ATP (100 uM) were next added to the enzyme/compound mixture and incubated for one hour. Development reagent (protease) was added for one hour prior to detection in a fluorescence microplate reader. The site-specific protease only cleaves non-phosphorylated peptide and eliminates the FRET signal. Phosphorylation levels of each reaction were calculated using the ratio of coumarin emission (donor) over fluorescein emission (acceptor) with high ratios indicating high phosphorylation and low ratios, low phosphorylation levels.

In data set [5] the test system is Differentiated U937 cells. Description: MTT assay (loss of cell viability). The data set is classed as cell-based, human. Conditions: loss of cell viability, 10 ug/ml.
Procedure: Differentiated U937 cells were pre-incubated with compound for 4 hrs in 5% FCS or 10% FCS for 24 hrs and 72 hr. The supernatant was replaced with 200 ul of new media and 10 μL of MTT stock solution (5 mg/mL) added to each well. After 1 hr incubation, the media were removed, 200 μL of DMSO added to each well and the plates were shaken lightly for 1 hr prior to reading the absorbance at 550 nm.
The percentage loss of cell viability was calculated for each well relative to vehicle (0.5% DMSO)-treatment. Consequently an apparent increase in cell viability for drug treatment relative to vehicle is tabulated as a negative percentage.
In data set [6] the target is T2, p38 MAPK alpha (MAPK14: Invitrogen) (Homo sapiens, UniProt Q16539).
T2 construct: purchased Invitrogen
Put plainly: Enzyme inhibition assay (FRET, Z-LYTE), p38 MAPK alpha, via activation of MAPKAP-K2. To be noted: read-out: IC50 values p38α enzyme. The data set is classed as biochemical.

Data set [7] deals with LPS-induced TNFα release in THP-1 cells. Put plainly: LPS-induced TNF alpha release in THP-1 cells. To be noted: Homo sapiens. The data set is classed as cell-based.
Procedure: THP-1, human monocytic cell line, was also used for this assay. THP-1 cells were stimulated with 1 μg/ml of LPS (from E. coli: O111:B4, Sigma) for 4 hrs, and the supernatant collected for determination of TNFα concentration.
THP-1 cells, a human monocytic cell line, were stimulated with 1 μg/ml of LPS (from E. coli; O111:B4, Sigma) for 4 hr and the supernatant collected for determination of TNFα concentration by sandwich ELISA (Duo-set, R&D systems). The inhibition of TNFα production was calculated at each concentration by comparison with vehicle control.
Setting [8] is: Homo sapiens; read-out: R-EC50 values d-U937 cells.
[9] abbreviates: THP-1, LPS-induced TNFα release, read-out: IC50 values THP-1 cells.

Like-named read-outs stand apart in the source and are kept apart here.

T2 sequence (Q16539 whole entry): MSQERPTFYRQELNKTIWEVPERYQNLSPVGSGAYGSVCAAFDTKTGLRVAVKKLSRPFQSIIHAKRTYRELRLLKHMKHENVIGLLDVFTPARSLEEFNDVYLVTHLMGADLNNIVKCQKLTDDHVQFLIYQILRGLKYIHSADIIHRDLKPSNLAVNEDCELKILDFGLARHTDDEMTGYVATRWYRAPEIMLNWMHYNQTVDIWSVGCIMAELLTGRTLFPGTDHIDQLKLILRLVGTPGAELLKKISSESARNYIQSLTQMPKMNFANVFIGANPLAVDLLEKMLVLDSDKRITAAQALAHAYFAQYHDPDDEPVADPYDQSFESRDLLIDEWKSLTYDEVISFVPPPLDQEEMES

Regarding `CCC(=O)O[C@]1(C(=O)SCF)[C@H](C)C[C@H]2[C@@H]3C[C@H](F)C4=CC(=O)C=C[C@]4(C)[C@@]3(F)[C@@H](O)C[C@@]21C` [fluticasone propionate], the “effect on ovalbumin-mediated lung function changes” value in data set [1] was “inhibited”. The “inhibition of neutrophil or macrophage accumulation into airways” value in data set [2] is “did not inhibit”.

In the case of `Cc1ccc(-n2nc(C(C)(C)C)cc2NC(=O)Nc2ccc(OCc3ccnc(NC(=O)N4CCN(S(C)(=O)=O)C4=O)c3)c3ccccc23)cc1` [Example 18, N-(4-((4-(3-(3-tert-Butyl-1-p-tolyl-1H-pyrazol-5-yl)ureido)naphthalen-1-yloxy)methyl)pyridin-2-yl)-3-(methylsulfonyl)-2-oxoimidazolidine-1-carboxamide], the EC50 in data set [3] (setting [8]) was below 500 nM. Moreover, the IC50 is above 5 µM in data set [4], below 500 nM in data set [6] and below 10 nM in data set [7] (setting [9]). Further, in data set [5], the “MTT 4 hr” value is given as “− (− <30%)”. Moreover, the “MTT 24 hr” value in data set [5] is “− (− <30%)”.

On to `COCCN1CCN(CC(=O)Nc2cc(COc3ccc(NC(=O)Nc4cc(C(C)(C)C)nn4-c4ccc(C)cc4)c4ccccc34)ccn2)CC1` [Example 24, N-(4-((4-(3-(3-tert-Butyl-1-p-tolyl-1H-pyrazol-5-yl)ureido)naphthalen-1-yloxy)methyl)pyridin-2-yl)-2-(4-(2-methoxyethyl)piperazin-1-yl)acetamide], for which the EC50 in data set [3] (setting [8]) was below 10 nM. The IC50 in data set [4] is below 0.5 µM; in data set [6] it was below 10 nM; in data set [7] (setting [9]), below 10 nM. Further, the “MTT 4 hr” value in data set [5] is on record as “− (− <30%)”. In addition, the “MTT 24 hr” value in data set [5] was “− (− <30%)”.

In the case of `COCCN(CCOC)CC(=O)Nc1cc(COc2ccc(NC(=O)Nc3cc(C(C)(C)C)nn3-c3ccc(C)cc3)c3ccccc23)ccn1` [Example 33, 2-(Bis(2-methoxyethyl)amino)-N-(4-((4-(3-(3-tert-butyl-1-p-tolyl-1H-pyrazol-5-yl)ureido)naphthalen-1-yloxy)methyl)pyridin-2-yl)acetamide], the EC50 in data set [3] (setting [8]) is below 10 nM. The results for the IC50 in data set [4], in data set [6] and in data set [7] (setting [9]) were below 5 µM, below 10 nM and below 10 nM, respectively. The “MTT 4 hr” value in data set [5] is “− (− <30%)”. Also, the “MTT 24 hr” value in data set [5] is reported as “− (− <30%)”.

Consider `Cc1ccc(-n2nc(C(C)(C)C)cc2NC(=O)Nc2ccc(OCc3ccnc(NC(=O)C4CCOCC4)c3)c3ccccc23)cc1` [Example 3, N-(4-((4-(3-(3-tert-Butyl-1-p-tolyl-1H-pyrazol-5-yl)ureido)naphthalen-1-yloxy)methyl)pyridin-2-yl)tetrahydro-2H-pyran-4-carboxamide], for which the EC50 in data set [3] (setting [8]) was below 10 nM. Also, the values for the IC50 in data set [4], in data set [6] and in data set [7] (setting [9]) were below 0.5 µM, below 10 nM and below 10 nM, respectively. The “MTT 4 hr” value in data set [5] is reported as “− (− <30%)”. For the same compound, the “MTT 24 hr” value in data set [5] is reported as “+ (+ >30% at 10 ug/ml)”.

As to `Cc1ccc(-n2nc(C(C)(C)C)cc2NC(=O)Nc2ccc(OCc3ccnc(NC(=O)N4CCN(C)CC4)c3)c3ccccc23)cc1` [Example 12, N-(4-((4-(3-(3-tert-Butyl-1-p-tolyl-1H-pyrazol-5-yl)ureido)naphthalen-1-yloxy)methyl)pyridin-2-yl)-4-methylpiperazine-1-carboxamide], the EC50 in data set [3] (Homo sapiens, read-out: R-EC50 values d-U937 cells) is below 10 nM. Besides, the half-maximal inhibitory concentration (IC50) in data set [4] was below 0.5 µM; in data set [6] it was below 10 nM; in data set [7] (THP-1, read-out: IC50 values THP-1 cells), below 10 nM. In data set [5], the “MTT 4 hr” value is “− (− <30%)”. Besides, the “MTT 24 hr” value in data set [5] is listed as “− (− <30%)”.

With `CNC(C)(C)C(=O)Nc1cc(COc2ccc(NC(=O)Nc3cc(C(C)(C)C)nn3-c3ccc(C)cc3)c3ccccc23)ccn1` [Example 8, N-(4-((4-(3-(3-tert-Butyl-1-p-tolyl-1H-pyrazol-5-yl)ureido)naphthalen-1-yloxy)methyl)pyridin-2-yl)-2-methyl-2-(methylamino)propanamide], in data set [3] (setting [8]), the EC50 is below 10 nM. In addition, the figures for the IC50 in data set [4], in data set [6] and in data set [7] (setting [9]) were below 5 µM, below 500 nM and below 10 nM, respectively. In data set [5], the “MTT 4 hr” value is on record as “− (− <30%)”. For the same compound, the “MTT 24 hr” value in data set [5] was “+ (+ >30% at 10 ug/ml)”.

As for `COCC(=O)Nc1nccc(COc2ccc(NC(=O)Nc3cc(C(C)(C)C)nn3-c3ccc(C)cc3)c3ccccc23)n1` [Example 50, N-(4-((4-(3-(3-tert-Butyl-1-p-tolyl-1H-pyrazol-5-yl)ureido)naphthalen-1-yloxy)methyl)pyrimidin-2-yl)-2-methoxyacetamide], the EC50 in data set [3] (setting [8]) was below 10 nM. The concentration for half-maximal inhibition (IC50) is above 5 µM in data set [4], below 10 nM in data set [6] and below 500 nM in data set [7] (setting [9]). Further, in data set [5], the “MTT 4 hr” value is reported as “− (− <30%)”. In data set [5], the “MTT 24 hr” value was “− (− <30%)”.

Source of the values: patent publication US8299073B2, “P38 MAP kinase inhibitors” (Respivert Ltd., priority 2008, dated 2012).
